SMILES strings stand for the structures. Where a chain is given by its changes, count along the chain named. Like-named read-outs stand apart in the source and are kept apart here.

One data set deals with T1, human AR (Homo sapiens, UniProt P10275).
T1 construct: Reporter Cells used in these assays expressed a native receptor (AR)
T1 sequence (P10275 1-920): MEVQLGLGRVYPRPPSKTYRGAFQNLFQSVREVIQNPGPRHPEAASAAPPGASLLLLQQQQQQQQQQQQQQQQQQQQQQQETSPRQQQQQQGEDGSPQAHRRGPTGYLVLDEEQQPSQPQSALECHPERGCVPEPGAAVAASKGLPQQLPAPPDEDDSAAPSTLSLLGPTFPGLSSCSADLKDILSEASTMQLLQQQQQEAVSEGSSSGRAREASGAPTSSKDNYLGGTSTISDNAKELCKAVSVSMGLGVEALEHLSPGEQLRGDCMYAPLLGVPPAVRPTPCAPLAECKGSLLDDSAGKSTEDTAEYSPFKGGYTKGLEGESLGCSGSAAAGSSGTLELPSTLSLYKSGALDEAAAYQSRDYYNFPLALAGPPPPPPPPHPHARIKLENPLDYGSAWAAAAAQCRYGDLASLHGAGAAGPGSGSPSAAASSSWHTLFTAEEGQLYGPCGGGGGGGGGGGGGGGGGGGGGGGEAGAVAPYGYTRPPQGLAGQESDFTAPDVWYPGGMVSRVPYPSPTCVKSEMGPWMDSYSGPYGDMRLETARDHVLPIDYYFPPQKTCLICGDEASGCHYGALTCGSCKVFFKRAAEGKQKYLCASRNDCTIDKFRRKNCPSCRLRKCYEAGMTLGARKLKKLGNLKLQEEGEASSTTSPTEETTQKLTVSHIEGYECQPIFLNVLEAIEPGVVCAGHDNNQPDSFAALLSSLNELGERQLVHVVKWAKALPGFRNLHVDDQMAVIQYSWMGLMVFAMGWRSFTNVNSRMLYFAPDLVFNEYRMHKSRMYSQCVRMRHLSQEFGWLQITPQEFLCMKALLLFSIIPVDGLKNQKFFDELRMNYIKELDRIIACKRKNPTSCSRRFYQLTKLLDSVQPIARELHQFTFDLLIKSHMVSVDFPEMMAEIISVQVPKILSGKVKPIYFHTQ
Description: Indigo Biosciences AR reporter cell assay (AR inhibition, antagonist mode). It counts as cell-based. Conditions: luciferase reporter cells, 24 hr, EC80 of agonist 5α-dihydro-11-keto testosterone, read-out: AR Inhibition Indigo Cell Based: Avg IC50. The method, then:
The aim of this study was to evaluate compounds 1-12 and the comparative compounds 1-2 for inhibition activities against human AR. Reporter Cells used in these assays expressed a native receptor (AR). The reporter gene, firefly luciferase, is functionally linked to an upstream receptor-specific genetic response element (GRE). Reporter cells were treated with eight concentrations, starting at 50 μM and following with 3.17-fold dilutions. Single treatment concentration was performed (n=1). Assay performance was validated using the reference antagonist hydroxy flutamide. • Step 1: A suspension of reporter cells was prepared in Cell Recovery Medium (CRM). Reporter cells were first supplemented with 2×-EC80 concentration of the reference agonist, 5α-dihydro-11-keto testosterone, then 100 μl of the Reporter Cell suspension was dispensed into wells of a white 96-well assay plate. • Step 2: Test compound master stocks were diluted in DMSO to generate solutions at ‘500×-concentration’ relative to the final treatment concentration and diluted directly into INDIGO's Compound Screening Medium (CSM; containing charcoal-stripped FBS) to generate ‘2×-concentration’ treatment media. This was diluted into the wells to the final concentration. Assay plates were incubated at 37° C., 5% CO2 and ~70% humidity for 24 hr. • Step 3: Following the incubation period, wells were rinsed once with Live Cell Multiplex (LCM) Buffer, then LCM substrate was added. Following incubation at room temperature for 15 min, LCM substrate was discarded and 100 μL/well of luciferase detection reagent was added. Subsequently, fluorescence was measured to determine the relative number of live cells per assay well. RLU values were quantified after a 10 min incubation period at room temperature to determine nuclear receptor activities.
(A reporter such as luciferase makes a cellular process visible.)

A short description of data set [1]: Mouse liver microsome stability. It counts as in vitro ADME. Conditions: 1 μM. The method, then: (§1) Preincubation mixture 2.5 μL Test Cpd. +75 μL Liver microsomes (human or mouse source) @ 3.33 mg/mL+85 µL of 100 mM potassium phosphate buffer (preincubate for 10 min @ 37° C.). Incubation mixture 62 μL of cofactor (2.85 mM)+Remaining incubation mixture (Incubated for 60 min @ 37° C.). Sample preparation 25 μL incubation mixture+200 μL of acetonitrile containing internal standard+Vortex 5 min @ 1200 rpm+Centrifuge 10 min @ 4000 rpm. Supernatant diluted 2-fold with water and injected on LC-MS/MS.
A general note: Microsomes from liver hold many membrane-bound enzymes, among them those of drug oxidation.

The next data set deals with T2, Human androgen receptors (Homo sapiens, UniProt P10275, T878A).
T2 construct: Human androgen receptors obtained from human LNCaP cells were used; host or cells: human LNCaP cells
T2 sequence (P10275 1-920 T878A): T1 sequence (P10275 1-920) with T878A
Description: Biochemical AR LBD antagonism (Eurofins AR radioligand binding assay). The method, then: Human androgen receptors obtained from human LNCaP cells were used in modified HEPES buffer pH 7.4. A 70 μg‡ aliquot was incubated with 0.5 nM [3H] Methyltrienolone for 20 h at 4° C. Non-specific binding was estimated in the presence of 1 μM testosterone. Receptors were filtered and washed, the filters were then counted to determine [3H] Methyltrienolone specifically bound. Compounds were screened at 10 μM.
Furthermore, as noted earlier, most clinically relevant AR inhibitors target the ligand binding domain (LBD) of the androgen receptor, and these inhibitors can lose efficacy due to point mutations in the LBD. Given that the AR protein contains multiple sub-domains, targeting other domains is an attractive approach for new inhibitors. […] Therefore, the compounds as described herein may be interacting with other subdomains in the AR protein, namely the N-terminal domain.

Data set [2] in a line: Human liver microsome stability. It counts as in vitro ADME. Conditions: 1 μM. The method, then:
as §1

[3] abbreviates: Table 6, mouse liver microsomes.
Where [4] appears, read: Table 4, read-out: Biochemical AR LBD Antagonism: Average IC50.
[5] abbreviates: Table 6, human liver microsomes.
Where [6] appears, read: Table 3, read-out: Biochemical AR LBD Antagonism: Avg IC50.

For `Cc1nnc2ccc(N[C@H](C)c3ccc(F)cc3)nn12` [Compound 10, (R)—N-(1-(4-fluorophenyl)ethyl)-3-methyl-[1,2,4]triazolo[4,3-b]pyridazin-6-amine], the half-maximal inhibitory concentration (IC50) on human AR (Table 2) is 51 to 500 nM; at Human androgen receptors (setting [4]), above 501 nM. In addition, the “Mouse LM: Rem @ 60 min” value in data set [1] (setting [3]) was “+++ (>60.1: “+++”)”. Moreover, the “Human LM: Rem @ 60 min” value in data set [2] (setting [5]) is “+++ (>60.1: “+++”)”.

For `C[C@@H](Nc1ccc2nnc(C3CC3)n2n1)c1ccc(F)cc1` [Compound 11, (R)-3-cyclopropyl-N-(1-(4-fluorophenyl)ethyl)-[1,2,4]triazolo[4,3-b]pyridazin-6-amine], the IC50 on human AR (Table 2) was above 501 nM.

With `C[C@@H](Nc1ccc2nnc(C(F)(F)F)n2n1)c1ccc(C#N)cc1` [Compound 9, (R)-4-(1-((3-(trifluoromethyl)-[1,2,4]triazolo[4,3-b]pyridazin-6-yl)amino)ethyl)benzonitrile], the IC50 at human AR (Table 2) was above 501 nM.

Consider `C[C@@H](Nc1ccc2nnc(C(F)(F)F)n2n1)c1ccc(C(F)(F)F)cc1` [Compound 4, (R)-3-(trifluoromethyl)-N-(1-(4-(trifluoromethyl)phenyl)ethyl)-[1,2,4]triazolo[4,3-b]pyridazin-6-amine], for which the concentration for half-maximal inhibition (IC50) at human AR (Table 2) lay within 51 to 500 nM. For the same compound, in data set [1] (setting [3]), the “Mouse LM: Rem @ 60 min” value is “+++ (>60.1: “+++”)”. For the same compound, in data set [2] (setting [5]), the “Human LM: Rem @ 60 min” value is listed as “+++ (>60.1: “+++”)”.

Take `C[C@H](c1ccc(F)cc1)N(C)c1ccc2nnc(C(F)(F)F)n2n1` [Compound 5, (R)—N-(1-(4-fluorophenyl)ethyl)-N-methyl-3-(trifluoromethyl)-[1,2,4]triazolo[4,3-b]pyridazin-6-amine]: the IC50 at human AR (Table 2) and at Human androgen receptors (setting [4]) was 51 to 500 nM in each case. For the same compound, the “Mouse LM: Rem @ 60 min” value in data set [1] (setting [3]) is reported as “+ (0-30: “+”)”. Besides, in data set [2] (setting [5]), the “Human LM: Rem @ 60 min” value is listed as “+++ (>60.1: “+++”)”.

On to `C[C@@H](Nc1ccc2nnc(C(F)(F)F)n2n1)c1cc(Cl)cc(Cl)c1` [Compound 8, (R)—N-(1-(3,5-dichlorophenyl)ethyl)-3-(trifluoromethyl)-[1,2,4]triazolo[4,3-b]pyridazin-6-amine], for which the figures for the IC50 at human AR (Table 2) and at Human androgen receptors (setting [4]) were 51 to 500 nM and above 501 nM, respectively. The “Mouse LM: Rem @ 60 min” value in data set [1] (setting [3]) is “+++ (>60.1: “+++”)”. Moreover, in data set [2] (setting [5]), the “Human LM: Rem @ 60 min” value is listed as “+++ (>60.1: “+++”)”.

As for `COc1cc([C@@H](C)Nc2ccc3nnc(C(F)(F)F)n3n2)ccc1F` [Compound 6, (R)—N-(1-(4-fluoro-3-methoxyphenyl)ethyl)-3-(trifluoromethyl)-[1,2,4]triazolo[4,3-b]pyridazin-6-amine], the IC50 was 51 to 500 nM on human AR (Table 2) and above 501 nM at Human androgen receptors (setting [4]). Besides, the “Mouse LM: Rem @ 60 min” value in data set [1] (setting [3]) is recorded as “+ (0-30: “+”)”. Further, in data set [2] (setting [5]), the “Human LM: Rem @ 60 min” value is recorded as “+++ (>60.1: “+++”)”.

As for `C[C@H](Nc1ccc2nnc(C(F)(F)F)n2n1)c1ccc(F)cc1` [Comparative Compound 2, (S)—N-(1-(4-fluorophenyl)ethyl)-3-(trifluoromethyl)-[1,2,4]triazolo[4,3-b]pyridazin-6-amine, reference compound], the IC50 at human AR (Table 1) and at Human androgen receptors (setting [6]) was above 501 nM each time.

With `C[C@@H](Nc1ccc2nnc(C(F)(F)F)n2n1)c1cc(F)cc(F)c1` [Compound 2, (R)—N-(1-(3,5-difluorophenyl)ethyl)-3-(trifluoromethyl)-[1,2,4]triazolo[4,3-b]pyridazin-6-amine], the values for the concentration for half-maximal inhibition (IC50) at human AR (Table 2) and on Human androgen receptors (setting [4]) were below 50 nM and above 501 nM, respectively. For the same compound, the “Mouse LM: Rem @ 60 min” value in data set [1] (setting [3]) is “+++ (>60.1: “+++”)”. For the same compound, in data set [2] (setting [5]), the “Human LM: Rem @ 60 min” value is “+++ (>60.1: “+++”)”.

Turning to `C[C@@H](Nc1ccc2nnc(C(F)F)n2n1)c1ccc(F)cc1` [Compound 12], the IC50 is 51 to 500 nM at human AR (Table 2) and above 501 nM on Human androgen receptors (setting [4]). Moreover, the “Mouse LM: Rem @ 60 min” value in data set [1] (setting [3]) is on record as “+++ (>60.1: “+++”)”. Moreover, the “Human LM: Rem @ 60 min” value in data set [2] (setting [5]) is “+++ (>60.1: “+++”)”.

Regarding `CC(Nc1ccc2nnc(C(F)(F)F)n2n1)c1ccc(F)cc1` (racemic) [Comparative Compound 1, (R, S)—N-(1-(4-fluorophenyl)ethyl)-3-(trifluoromethyl)-[1,2,4]triazolo[4,3-b]pyridazin-6-amine, reference compound], the figures for the half-maximal inhibitory concentration (IC50) at human AR (Table 1) and at Human androgen receptors (setting [6]) were 51 to 500 nM and above 501 nM, respectively. In addition, in data set [1] (Table 5, mouse liver microsomes), the “Mouse LM: Rem @ 60 min” value is on record as “+++ (>60.1: “+++”)”. For the same compound, the “Human LM: Rem @ 60 min” value in data set [2] (Table 5, human liver microsomes) was “+++ (>60.1: “+++”)”.

Regarding `COc1cc(Cl)cc([C@@H](C)Nc2ccc3nnc(C(F)(F)F)n3n2)c1` [Compound 7, (R)—N-(1-(3-chloro-5-methoxyphenyl)ethyl)-3-(trifluoromethyl)-[1,2,4]triazolo[4,3-b]pyridazin-6-amine], the IC50 on human AR (Table 2) and on Human androgen receptors (setting [4]) was 51 to 500 nM in each case. Also, the “Mouse LM: Rem @ 60 min” value in data set [1] (setting [3]) is recorded as “+ (0-30: “+”)”. Moreover, the “Human LM: Rem @ 60 min” value in data set [2] (setting [5]) is on record as “+++ (>60.1: “+++”)”.

For orientation: IC50 means the concentration needed to halve the response being measured.

For the origin of these results see patent publication US20260217716A1, “ANDROGEN RECEPTOR MODULATORS AND METHODS FOR THEIR USE” (Capulus Therapeutics, LLC, priority 2022, published 2026).
